Paper PMC11546340 (BMC Chemistry, 2024)
Several values for one entry are separate records, joined by “and”; a condition that tells them apart may be missing. Identical values can stand only once.

What was measured:
[1] = tested on: human plasma; assay: Plasma protein binding, HT Dialysis 96-well apparatus, LC-MS/MS; type: in vitro ADME; details: 3 µM
[2] = as above; type: in vitro ADME; details: male, human, plasma, pH 7.4, Recovery (%), mean, n = 4

O=C(O)Cc1ccccc1Nc1c(Cl)cccc1Cl [Diclofenac]
Bound (%) ([1]; individual replicates 1-4): 99.01% and 99.07% and 98.91% and 98.99% | Recovery (%) ([1]; individual replicates 1-4): 80.60% and 94.07% and 119.11% and 83.10% | Unbound (%) ([1]; individual replicates 1-4): 0.99% and 0.93% and 1.09% and 1.01% | Unbound (%) ([1]; mean, n = 4): 1.01% | recovery at 5 h, 3 µM [2]: 94.2%
